Measurements reported in article PMC5365662, “A Short Double-Stapled Peptide Inhibits Respiratory Syncytial Virus Entry and Spreading” (Antimicrobial Agents and Chemotherapy, 2017).
Bridge positions count the residues as written; N and C are the ends. Square brackets hold non-standard residues; d marks the D form. Peptide text beside a SMILES is read from it. R8 = C=CCCCCCC[C@@](C)(N)C(=O)O; S5 = C=CCCC[C@](C)(N)C(=O)O

How the values were obtained:
circular dichroism = details: 10 mM phosphate; pH 7.5; 25 °C; 50 uM
[1] = biological target: 5HB, a recombinant protein containing 3 HR1 domains covalently attached to 2 HR2 domains; details: competition with fluorescently labeled T108 probe (2 nM), 5HB 50 nM, 10 min preincubation + 30 min room temperature, duplicates
Text: The RSV HR2 region (residues 476 to 524) is a 49-amino-acid sequence that has been extensively characterized (Fig. 1). HR2 is a largely unstructured peptide in aqueous solution folding into an α-helix upon binding to trimeric HR1 coiled coils ([20]). […] We reduced HR2 (aa 483 to 516) into three short overlapping subdomains (subdomains 1 to 3) (Fig. 1). These peptides were scanned for various stapling combinations. […] Far-UV circular dichroism (CD) spectropolarimetry was used to investigate the effect of stapling on the α-helical content of the peptides. […] To assess the propensity of the stapled peptides to hinder the formation of the postfusion six-helix bundle required for viral cell entry, we used a 5-helix bundle (5HB) biochemical fluorescence polarization (FP) competition assay as previously described ([21], [22]).
The coding sequence of 5HB was designed as described previously and de novo synthesized by Genscript ([21]). The HR1 (aa 126 to 182) and HR2 (aa 476 to 524) coding sequences from wild-type RSV A2 strain F ([36]) were codon optimized for overexpression in Escherichia coli and cloned at NdeI/BamHI restriction sites of pET-15b to generate the expression plasmid for 5HB. The 5HB expression construct was transformed into Escherichia coli BL21(DE3). Cells were grown at 37°C to an optical density at 600 nm of 0.8 followed by induction with isopropyl-1-thio-β-D-galactopyranoside at a final concentration of 0.5 mM for 12 to 15 h. Cells were harvested by centrifugation, washed twice with PBS, and resuspended in 20 ml of PBS (pH 7.4), 500 mM NaCl, and 1% Triton X-100 supplemented with complete protease inhibitor. Cell suspensions were disrupted by sonication. Cell debris was removed through ultracentrifugation at 18,000 × g for 1 h at 4°C, and clarified cell lysate was mixed with 1 ml of nickel-nitrilotriacetic acid (Ni-NTA) agarose beads (Qiagen) preequilibrated with 20 ml of lysis buffer. The suspension was agitated for 1 h at 4°C and loaded onto a 5-ml polypropylene column (Qiagen). The column was washed twice with 8 ml of PBS (pH 7.4), 500 mM NaCl, 1% Triton X-100, and 100 mM imidazole. Proteins were eluted with 5 × 500 μl of a buffer containing PBS (pH 7.4), 300 mM imidazole, and 500 mM NaCl. The imidazole was removed by dialysis, and protein purity was assessed by SDS-polyacrylamide gel electrophoresis followed by Coomassie blue staining. Protein concentration was determined with the Qubit 2.0 Fluorometer (Life Technologies).
The T108 ([12]) peptide probe was synthesized by standard SPPS procedures using HCTU as a coupling reagent as described above. A 10-μl volume of recombinant 5HB protein in FP buffer (20 mM PBS [pH 7.4], 500 mM NaCl, 0.01% [vol/vol] Tween 20, and 0.05 mg/ml bovine gamma globulin) was preincubated for 10 min at room temperature with 10 μl of the appropriate concentration of the inhibitor, after which 10 μl of fluorescein isothiocyanate (FITC)-T106 was added and further incubated for 30 min at room temperature. The final concentrations of protein and probe were 50 nM and 2 nM, respectively. The fluorescence polarization assay was performed in 384-well plates using a Spectramax Paradigm (Molecular Devices), using excitation and emission wavelengths of 485 nm and 535 nm, respectively. The acquisition time was 700 ms, and the read height was 1 mm. All experiments were performed in duplicate. […] In order to ensure robust fitting for some fits, r0 was kept constant at the value measured for the free tracer in buffer.

[2] = test system: rHRSV-mCherry in HEp-2 cells; test: rHRSV-mCherry inhibition assay; assay type: cell-based, human respiratory syncytial virus; details: Table 3 (Ala scan); HEp-2 cells, rHRSV-mCherry MOI 0.2, 2-fold serial dilutions (11 dilutions), duplicate; ± SD of fit
Procedure: To measure the inhibitory activity of the peptide, the mCherry red fluorescence was quantified 48 h postinfection (p.i.).
Viral replication was quantified by measuring the mCherry fluorescence at 48 h p.i. and normalized based on the fluorescence of infected and untreated cells. (B) Cytotoxicity assay. HEp-2 cells were incubated in the presence of serial dilutions of peptides, and cell survival was quantified using the CellTiter-Glo Luminescent cell viability assay 24 h after the addition of the peptides. The signal was normalized based on the luminescence obtained for untreated cells. Error bars are standard deviations from duplicates.
HEp-2 cells were seeded at 5 × 10^4 cells per well in a 96-well plate the day before the infection. Peptides were 2-fold serially diluted in dimethyl sulfoxide (DMSO) (11 dilutions) and then further diluted in EMEM without phenol red and preincubated for 15 to 20 min with rHRSV-mCherry ([24]) at a final dilution with an MOI of 0.2 ([24]). The cells were incubated with the virus-peptide mixtures for a period of 1.5 to 2 h. The medium was then replaced by EMEM without phenol red containing 2% fetal bovine serum and the same concentration of peptide as the one that was used during the infection step. Plates were incubated 48 h at 37°C, and the mCherry fluorescence was measured using a spectrofluorometer (Tecan infinite M200PRO) with excitation and emission wavelengths of 580 and 620 nm, respectively. Relative fluorescence was normalized by the fluorescence of nontreated infected cells. Noninfected HEp-2 cells were used as standards for fluorescence background levels. Each experiment was performed in duplicate and repeated at least twice. The resulting inhibition curves were fitted in Igor Pro as described above.

Structure (SMILES)	helicity (circular dichroism)	Kd [1]	EC50 [2]
CC[C@H](C)[C@H](NC(=O)[C@H](Cc1ccccc1)NC(=O)[C@]1(C)CCCC=CCCC[C@](C)(NC(=O)[C@@H](NC(=O)[C@H](CCCCN)NC(=O)[C@H](CCC(=O)O)NC(=O)[C@H](CC(N)=O)NC(=O)[C@@H](NC(=O)[C@H](CCC(N)=O)NC(=O)[C@H](CO)NC(=O)[C@@H](NC(=O)[C@H](CCC(=O)O)NC(C)=O)[C@@H](C)CC)C(C)C)[C@@H](C)CC)C(=O)N[C@@H](CCC(N)=O)C(=O)N[C@@H](CO)C(=O)N[C@@H](CC(C)C)C(=O)N1)C(=O)N[C@@H](CCCNC(=N)N)C(N)=O [Peptide 2b] (Ac-EISQVNEKI[S5]QSL[S5]FIR-NH2; staple 10-14)	35.8%	369000 ± 99000 nM	–
CC[C@H](C)[C@H](NC(=O)[C@H](Cc1ccccc1)NC(=O)[C@H](C)NC(=O)[C@H](CC(C)C)NC(=O)[C@H](CO)NC(=O)[C@H](CCC(N)=O)NC(=O)[C@H](CCC(=O)O)NC(C)=O)C(=O)N[C@@H](CCCNC(=N)N)C(=O)N[C@@H](CCCCN)C(=O)N[C@@H](CO)C(=O)N[C@@H](CC(=O)O)C(=O)N[C@@H](CCC(=O)O)C(=O)N[C@@H](CC(C)C)C(=O)N[C@@H](CC(C)C)C(=O)N[C@@H](Cc1c[nH]cn1)C(=O)N[C@@H](CC(N)=O)C(=O)N[C@H](C(N)=O)C(C)C [Peptide 3] (Ac-EQSLAFIRKSDELLHNV-NH2)	5.9%	> 10800 nM	–
CC[C@H](C)[C@@H]1NC(=O)[C@H](Cc2ccccc2)NC(=O)[C@](C)(NC(=O)[C@H](CC(C)C)NC(=O)[C@H](CO)NC(=O)[C@H](CCC(N)=O)NC(=O)[C@H](CCC(=O)O)NC(C)=O)CCCCCCC=CCCC[C@@](C)(C(=O)N[C@@H](CC(C)C)C(=O)N[C@@H](CC(C)C)C(=O)N[C@@H](Cc2c[nH]cn2)C(=O)N[C@@H](CC(N)=O)C(=O)N[C@H](C(N)=O)C(C)C)NC(=O)[C@H](CC(=O)O)NC(=O)[C@H](CO)NC(=O)[C@H](CCCCN)NC(=O)[C@H](CCCNC(=N)N)NC1=O [Peptide 3e] (Ac-EQSL[R8]FIRKSD[S5]LLHNV-NH2; staple 5-12)	17.5%	71000 ± 34000 nM	–
CC[C@H](C)[C@H](NC(=O)[C@H](Cc1ccccc1)NC(=O)[C@H](C)NC(=O)[C@H](CC(C)C)NC(=O)[C@H](CO)NC(=O)[C@H](CCC(N)=O)NC(=O)[C@H](CCC(=O)O)NC(C)=O)C(=O)N[C@@]1(C)CCCC=CCCC[C@@](C)(C(=O)N[C@@H](CC(C)C)C(=O)N[C@@H](CC(C)C)C(=O)N[C@@H](Cc2c[nH]cn2)C(=O)N[C@@H](CC(N)=O)C(=O)N[C@H](C(N)=O)C(C)C)NC(=O)[C@H](CC(=O)O)NC(=O)[C@H](CO)NC(=O)[C@H](CCCCN)NC1=O [Peptide 3b] (Ac-EQSLAFI[S5]KSD[S5]LLHNV-NH2; staple 8-12)	23%	55900 ± 4000 nM	–
CC[C@H](C)[C@H](NC(=O)[C@H](CCCCN)NC(=O)[C@H](CCC(=O)O)NC(=O)[C@H](CC(N)=O)NC(=O)[C@@H](NC(=O)[C@H](CCC(N)=O)NC(=O)[C@H](CO)NC(=O)[C@@H](NC(=O)[C@H](CO)NC(=O)[C@H](C)NC(=O)[C@H](CC(=O)O)NC(=O)[C@H](Cc1ccccc1)NC(=O)[C@H](CCC(=O)O)NC(=O)[C@H](CC(=O)O)NC(=O)[C@H](CO)NC(=O)[C@@H]1CCCN1C(=O)[C@H](Cc1ccccc1)NC(=O)[C@H](CCC(=O)O)NC(C)=O)[C@@H](C)CC)C(C)C)C(=O)N[C@@H](CC(N)=O)C(N)=O [Peptide 1] (Ac-EFPSDEFDASISQVNEKIN-NH2)	–	2200 ± 500 nM	–
CC[C@H](C)[C@H](NC(=O)[C@H](C)NC(=O)[C@]1(C)CCCC=CCCC[C@](C)(NC(=O)[C@@H](NC(=O)[C@H](CCCCN)NC(=O)[C@H](CCC(=O)O)NC(C)=O)[C@@H](C)CC)C(=O)N[C@@H](CCC(N)=O)C(=O)N[C@@H](CO)C(=O)N[C@@H](CC(C)C)C(=O)N1)C(=O)N[C@@]1(C)CCCC=CCCC[C@@](C)(C(=O)N[C@@H](CC(C)C)C(=O)N[C@@H](CC(C)C)C(=O)N[C@@H](Cc2c[nH]cn2)C(=O)N[C@@H](CC(N)=O)C(=O)N[C@H](C(N)=O)C(C)C)NC(=O)[C@H](CC(=O)O)NC(=O)[C@H](CO)NC(=O)[C@H](CCCCN)NC1=O [Peptide F505A] (Ac-EKI[S5]QSL[S5]AI[S5]KSD[S5]LLHNV-NH2; staple 4-8, 11-15)	64%	–	1390 ± 100 nM
CC[C@H](C)[C@H](NC(=O)[C@H](Cc1ccccc1)NC(=O)[C@]1(C)CCCC=CCCC[C@](C)(NC(=O)[C@H](C)NC(=O)[C@H](CCCCN)NC(=O)[C@H](CCC(=O)O)NC(C)=O)C(=O)N[C@@H](CCC(N)=O)C(=O)N[C@@H](CO)C(=O)N[C@@H](CC(C)C)C(=O)N1)C(=O)N[C@@]1(C)CCCC=CCCC[C@@](C)(C(=O)N[C@@H](CC(C)C)C(=O)N[C@@H](CC(C)C)C(=O)N[C@@H](Cc2c[nH]cn2)C(=O)N[C@@H](CC(N)=O)C(=O)N[C@H](C(N)=O)C(C)C)NC(=O)[C@H](CC(=O)O)NC(=O)[C@H](CO)NC(=O)[C@H](CCCCN)NC1=O [Peptide I499A] (Ac-EKA[S5]QSL[S5]FI[S5]KSD[S5]LLHNV-NH2; staple 4-8, 11-15)	24%	–	1300 ± 890 nM
CC[C@H](C)[C@H](NC(=O)[C@H](C)NC(=O)[C@H](CCC(=O)O)NC(C)=O)C(=O)N[C@@]1(C)CCCC=CCCC[C@@](C)(C(=O)N[C@@H](Cc2ccccc2)C(=O)N[C@H](C(=O)N[C@@]2(C)CCCC=CCCC[C@@](C)(C(=O)N[C@@H](CC(C)C)C(=O)N[C@@H](CC(C)C)C(=O)N[C@@H](Cc3c[nH]cn3)C(=O)N[C@@H](CC(N)=O)C(=O)N[C@H](C(N)=O)C(C)C)NC(=O)[C@H](CC(=O)O)NC(=O)[C@H](CO)NC(=O)[C@H](CCCCN)NC2=O)[C@@H](C)CC)NC(=O)[C@H](CC(C)C)NC(=O)[C@H](CO)NC(=O)[C@H](CCC(N)=O)NC1=O [Peptide K498A] (Ac-EAI[S5]QSL[S5]FI[S5]KSD[S5]LLHNV-NH2; staple 4-8, 11-15)	42%	–	600 ± 20 nM
CC[C@H](C)[C@H](NC(=O)[C@H](CCCCN)NC(=O)[C@H](C)NC(C)=O)C(=O)N[C@@]1(C)CCCC=CCCC[C@@](C)(C(=O)N[C@@H](Cc2ccccc2)C(=O)N[C@H](C(=O)N[C@@]2(C)CCCC=CCCC[C@@](C)(C(=O)N[C@@H](CC(C)C)C(=O)N[C@@H](CC(C)C)C(=O)N[C@@H](Cc3c[nH]cn3)C(=O)N[C@@H](CC(N)=O)C(=O)N[C@H](C(N)=O)C(C)C)NC(=O)[C@H](CC(=O)O)NC(=O)[C@H](CO)NC(=O)[C@H](CCCCN)NC2=O)[C@@H](C)CC)NC(=O)[C@H](CC(C)C)NC(=O)[C@H](CO)NC(=O)[C@H](CCC(N)=O)NC1=O [Peptide E497A] (Ac-AKI[S5]QSL[S5]FI[S5]KSD[S5]LLHNV-NH2; staple 4-8, 11-15)	38%	–	1160 ± 80 nM
